Assay results reported in ChEMBL document CHEMBL3885861, “Open TG-GATES”.

Species: Rattus norvegicus
Assay: Open TG-GATES - Regimen: Single
Assay type: toxicity, organism-based, Sprague-Dawley
Design: regimen Single, gender Male, age 6 weeks
Settings: in vivo, po, 100 mg/kg, route gavage, dose level Low; for APTT / Bas / Eos / Fbg / Hb / Ht / Lym / MCH / MCHC / MCV / Mono / Neu / PT / Plat / RBC / Ret / WBC: tissue Blood; for KIDNEY_L / KIDNEY_R / KIDNEY_TOTAL: tissue Kidney; for LIVER: tissue Liver; for A/G / ALP / ALT / AST / BUN / CRE / Ca / Cl / DBIL / GLC / IP / K / LDH / Na / PL / RALB / TBIL / TC / TG / TP / gamma-GTP: tissue Plasma

Compound: Cc1nnc2n1-c1ccc(Cl)cc1C(c1ccccc1Cl)=NC2 [TRIAZOLAM]
- TERMINAL_BW (3 h): 192 g
- APTT (3 h): 17.6 s
- Bas (3 h): 0%
- Eos (3 h): 1%
- Fbg (3 h): 279.8 mg/dL
- Hb (3 h): 13.9 g/dL
- Ht (3 h): 42.1%
- Lym (3 h): 75%
- MCH (3 h): 21 pg
- MCHC (3 h): 33%
- MCV (3 h): 63.8 fL
- Mono (3 h): 3%
- Neu (3 h): 20.4%
- PT (3 h): 13.5 s
- Plat (3 h): 121.2 x10_4/uL
- RBC (3 h): 661.2 x10_4/ul
- Ret (3 h): 9.1%
- WBC (3 h): 73.1 x10_2/uL
- KIDNEY_L (3 h): 0.9 g
- KIDNEY_R (3 h): 0.8 g
- KIDNEY_TOTAL (3 h): 1.7 g
- LIVER (3 h): 8 g
- A/G (3 h): 0.9
- ALP (3 h): 1479.6 IU/L
- ALT (3 h): 40.8 IU/L
- AST (3 h): 75.4 IU/L
- BUN (3 h): 9.4 mg/dL
- CRE (3 h): 0.2 mg/dL
- Ca (3 h): 11 mg/dL
- Cl (3 h): 104.2 meq/L
- DBIL (3 h): 0.008 mg/dL
- GLC (3 h): 176.4 mg/dL
- IP (3 h): 10.2 mg/dL
- K (3 h): 4.3 meq/L
- LDH (3 h): 80.4 IU/L
- Na (3 h): 141.4 meq/L
- PL (3 h): 144.4 mg/dL
- RALB (3 h): 2.4 g/dL
- TBIL (3 h): 0.062 mg/dL
- TC (3 h): 75.8 mg/dL
- TG (3 h): 40.6 mg/dL
- TP (3 h): 5.1 g/dL
- gamma-GTP (3 h): 1.4 IU/L
- TERMINAL_BW (6 h): 189.9 g
- APTT (6 h): 19.9 s
- Bas (6 h): 0%
- Eos (6 h): 0.8%
- Fbg (6 h): 284 mg/dL
- Hb (6 h): 13.9 g/dL
- Ht (6 h): 42.5%
- Lym (6 h): 76.8%
- MCH (6 h): 21.1 pg
- MCHC (6 h): 32.6%
- MCV (6 h): 64.7 fL
- Mono (6 h): 2.2%
- Neu (6 h): 19.6%
- PT (6 h): 13.4 s
- Plat (6 h): 121.9 x10_4/uL
- RBC (6 h): 657.4 x10_4/ul
- Ret (6 h): 9.3%
- WBC (6 h): 73 x10_2/uL
- KIDNEY_L (6 h): 0.9 g
- KIDNEY_R (6 h): 0.9 g
- KIDNEY_TOTAL (6 h): 1.7 g
- LIVER (6 h): 8.1 g
- A/G (6 h): 0.9
- ALP (6 h): 1351.6 IU/L
- ALT (6 h): 40.4 IU/L
- AST (6 h): 69.8 IU/L
- BUN (6 h): 7.6 mg/dL
- CRE (6 h): 0.1 mg/dL
- Ca (6 h): 10.9 mg/dL
- Cl (6 h): 104.4 meq/L
- DBIL (6 h): 0.008 mg/dL
- GLC (6 h): 186.2 mg/dL
- IP (6 h): 10.5 mg/dL
- K (6 h): 4.2 meq/L
- LDH (6 h): 70 IU/L
- Na (6 h): 140.8 meq/L
- PL (6 h): 142.8 mg/dL
- RALB (6 h): 2.5 g/dL
- TBIL (6 h): 0.062 mg/dL
- TC (6 h): 78.6 mg/dL
- TG (6 h): 34 mg/dL
- TP (6 h): 5.1 g/dL
- gamma-GTP (6 h): 1.2 IU/L
- TERMINAL_BW (9 h): 190.1 g
- APTT (9 h): 18.1 s
- Bas (9 h): 0%
- Eos (9 h): 1.6%
- Fbg (9 h): 285.4 mg/dL
- Hb (9 h): 13.4 g/dL
- Ht (9 h): 41%
- Lym (9 h): 73.8%
- MCH (9 h): 20.6 pg
- MCHC (9 h): 32.7%
- MCV (9 h): 63 fL
- Mono (9 h): 2.2%
- Neu (9 h): 21.6%
- PT (9 h): 13.7 s
- Plat (9 h): 122.5 x10_4/uL
- RBC (9 h): 651.2 x10_4/ul
- Ret (9 h): 9.4%
- WBC (9 h): 68 x10_2/uL
- KIDNEY_L (9 h): 0.9 g
- KIDNEY_R (9 h): 0.9 g
- KIDNEY_TOTAL (9 h): 1.7 g
- LIVER (9 h): 7.5 g
- A/G (9 h): 0.9
- ALP (9 h): 1617.4 IU/L
- ALT (9 h): 35.8 IU/L
- AST (9 h): 65.4 IU/L
- BUN (9 h): 8.4 mg/dL
- CRE (9 h): 0.1 mg/dL
- Ca (9 h): 10.8 mg/dL
- Cl (9 h): 105 meq/L
- DBIL (9 h): 0.014 mg/dL
- GLC (9 h): 181.8 mg/dL
- IP (9 h): 10.6 mg/dL
- K (9 h): 4.5 meq/L
- LDH (9 h): 68.8 IU/L
- Na (9 h): 141 meq/L
- PL (9 h): 150.6 mg/dL
- RALB (9 h): 2.4 g/dL
- TBIL (9 h): 0.062 mg/dL
- TC (9 h): 75.4 mg/dL
- TG (9 h): 65 mg/dL
- TP (9 h): 5.2 g/dL
- gamma-GTP (9 h): 1 IU/L
- TERMINAL_BW (24 h): 208.4 g
- APTT (24 h): 20.1 s
- Bas (24 h): 0%
- Eos (24 h): 1%
- Fbg (24 h): 279 mg/dL
- Hb (24 h): 13.3 g/dL
- Ht (24 h): 40.5%
- Lym (24 h): 69%
- MCH (24 h): 20.7 pg
- MCHC (24 h): 32.8%
- MCV (24 h): 63.2 fL
- Mono (24 h): 3.2%
- Neu (24 h): 26.2%
- PT (24 h): 13.4 s
- Plat (24 h): 123.8 x10_4/uL
- RBC (24 h): 640.8 x10_4/ul
- Ret (24 h): 8.2%
- WBC (24 h): 109.3 x10_2/uL
- KIDNEY_L (24 h): 0.9 g
- KIDNEY_R (24 h): 0.9 g
- KIDNEY_TOTAL (24 h): 1.8 g
- LIVER (24 h): 9.2 g
- A/G (24 h): 0.9
- ALP (24 h): 1675 IU/L
- ALT (24 h): 41.6 IU/L
- AST (24 h): 68.2 IU/L
- BUN (24 h): 12 mg/dL
- CRE (24 h): 0.2 mg/dL
- Ca (24 h): 11.3 mg/dL
- Cl (24 h): 104.2 meq/L
- DBIL (24 h): 0.01 mg/dL
- GLC (24 h): 183.6 mg/dL
- IP (24 h): 9.4 mg/dL
- K (24 h): 4.1 meq/L
- LDH (24 h): 91 IU/L
- Na (24 h): 141.2 meq/L
- PL (24 h): 158.2 mg/dL
- RALB (24 h): 2.5 g/dL
- TBIL (24 h): 0.06 mg/dL
- TC (24 h): 82.2 mg/dL
- TG (24 h): 83.8 mg/dL
- TP (24 h): 5.4 g/dL
- gamma-GTP (24 h): 1.2 IU/L
